Test results taken from EPA's aquatic toxicity sets.

Legend:
Pimephales promelas = experiment: 96 h LC50 (-log10 mol/L); higher = more toxic
Tetrahymena pyriformis = experiment: 48 h IGC50 (-log10 mol/L); higher = more toxic

| Structure (SMILES) | 96 h LC50 (-log10 mol/L) (Pimephales promelas) | 48 h IGC50 (-log10 mol/L) (Tetrahymena pyriformis) |
| --- | --- | --- |
| C=CCCl | 3.55 | 2.06 |
| CCCCOC(=O)CCC(=O)OCCCC | 4.71 | 3.51 |
| Cc1ccncc1 | 2.36 | 2.12 |
| CCOc1ccc(C=O)cc1 | 3.74 | 3.07 |
| O=[N+]([O-])c1cccc2ccccc12 | 4.53 | 4 |
| CC(=O)CC(C)C | 2.27 | 1.79 |
| COc1cc(OC)c(OC)cc1C=O | 3.6 | 2.9 |
| CC(=O)c1ccc(Cl)c(Cl)c1Cl | 5.05 | 4.34 |
| CC(O)CO (stereo not given) | 0.349 | 0.49 |
| CCCCCCCCCCCO | 5.22 | 4.96 |
| C=CCC(O)C=C (stereo not given) | 3.41 | 3.25 |
| c1ccc(-c2ccncc2)cc1 | 3.98 | 3.66 |
| CCCCCCCCCCC(C)=O | 5.19 | 4.67 |
| Oc1ccc(Cl)cc1Cc1cc(Cl)ccc1O | 5.94 | 6.09 |
| Cc1cc(C)c(C#N)c(=O)[nH]1 | 2.98 | 2.3 |
| Clc1cc(Cl)c(Cl)cc1Cl | 5.83 | 5 |
| CC(=O)Nc1cccc(O)c1 | 2.13 | 2.84 |
| c1cc(CCc2ccncc2)ccn1 | 3.09 | 2.97 |
| Brc1ccc(Br)cc1 | 5.28 | 3.68 |
| O=Cc1ccc(O)cc1O | 4.02 | 3.52 |
| O=Cc1cc(Cl)ccc1O | 5.31 | 4.01 |
| CCC(C)(C)c1ccc(O)cc1 | 4.8 | 4.23 |

| Structure (SMILES) | 96 h LC50 (-log10 mol/L) (Pimephales promelas) | 48 h IGC50 (-log10 mol/L) (Tetrahymena pyriformis) |
| --- | --- | --- |
| O=C1CCCCC1 | 2.19 | 1.77 |
| Nc1ccccc1 | 2.99 | 2.77 |
| CCCCCCCCBr | 5.36 | 4.87 |
| C=CC(=O)OC1CCCCC1 | 5.02 | 3.76 |
| O=Cc1ccc(Cl)cc1 | 4.8 | 3.4 |
| CCCC=O | 3.65 | 2.62 |
| O=Cc1cc(O)ccc1[N+](=O)[O-] | 3.6 | 3.33 |
| CC=NO | 2.89 | 1.39 |
| Cc1cccc(O)c1[N+](=O)[O-] | 3.52 | 3.61 |
| COC(=O)c1ccc([N+](=O)[O-])cc1 | 3.88 | 3.39 |
| Cc1cccc(Cl)c1C#N | 4 | 3.46 |
| c1ccccc1 | 3.44 | 2.88 |
| CCCCC=O | 3.83 | 2.98 |
| COc1ccc(C(C)=O)c(O)c1 | 3.38 | 3.55 |
| Cc1c[nH]c2ccccc12 | 4.17 | 3.37 |
| CN1CCNCC1 | 1.64 | 2.04 |
| N#CCC#N | 5.07 | 3.22 |
| CCCCCCCCO | 3.98 | 3.58 |
| CCCCCO | 2.22 | 1.97 |
| CCCCOC(=O)CCC | 4.09 | 3.52 |
| C=CCc1ccc(O)c(OC)c1 | 3.83 | 3.42 |
| Cc1cccc(O)c1 | 3.29 | 2.92 |

| Structure (SMILES) | 96 h LC50 (-log10 mol/L) (Pimephales promelas) | 48 h IGC50 (-log10 mol/L) (Tetrahymena pyriformis) |
| --- | --- | --- |
| CCCCCCCCCCCC(C)=O | 5.74 | 5.12 |
| COC(=O)c1ccc(Cl)cc1 | 4.16 | 3.42 |
| N#CCCCCCCC#N | 2.41 | 2.23 |
| CCCCCc1ccccc1 | 4.94 | 4.79 |
| CCC(C)=NO | 2.01 | 1.93 |
| CCCCC(CC)CO (stereo not given) | 3.66 | 3.17 |
| CCC#N | 1.56 | 1.03 |
| CC(=O)OC(C)(C)C | 2.55 | 1.51 |
| CC(C)(CC(=O)O)CC(=O)O | 1.05 | 2.34 |
| CCNCc1ccccc1 | 3.37 | 3.22 |
| CCN(CC)c1ccccc1 | 3.96 | 3.66 |
| CCCOC(C)=O | 3.23 | 1.76 |
| O/N=C/c1ccccc1O | 4.63 | 3.25 |
| O=Cc1cccc([N+](=O)[O-])c1 | 4.42 | 3.11 |
| Cc1cc([N+](=O)[O-])ccc1N | 3.24 | 3.49 |
| O=Cc1cc(Br)cc(Br)c1O | 5.52 | 4.65 |
| N#CC(Br)Br | 5.56 | 5.4 |
| C=CC(=O)OCC(C)O (stereo not given) | 4.59 | 3.65 |
| CCOc1cc(C=O)ccc1O | 3.28 | 3.02 |
| Cc1ccc(C)c(O)c1C | 4.22 | 3.28 |
| CC(=O)c1cccn1C | 2.9 | 2.31 |
| CCCCCCCBr | 5.09 | 4.49 |

| Structure (SMILES) | 96 h LC50 (-log10 mol/L) (Pimephales promelas) | 48 h IGC50 (-log10 mol/L) (Tetrahymena pyriformis) |
| --- | --- | --- |
| Cc1ccc(N)c([N+](=O)[O-])c1 | 3.79 | 3.37 |
| O=[N+]([O-])c1c(Cl)cc(Cl)c([N+](=O)[O-])c1Cl | 6.09 | 5.19 |
| NC(=O)c1ccc(Cl)cc1Cl | 3.3 | 2.64 |
| C=CCC#N | 2.57 | 1.52 |
| CCOC(=O)c1ccccc1 | 4.25 | 2.99 |
| C=C(C)C(=O)OCCO | 2.76 | 1.92 |
| Oc1c(Br)cc(Br)cc1Br | 4.71 | 4.91 |
| Oc1cccc(O)c1 | 3.3 | 2.35 |
| O=Cc1cccnc1 | 3.81 | 2.87 |
| NCCN1CCNCC1 | 1.77 | 2.21 |
| CC(=O)CC(=O)c1ccccc1 | 5.17 | 3.57 |
| OCC(Cl)(Cl)Cl | 2.82 | 2.54 |
| ClC(Cl)(Cl)Cl | 3.57 | 2.98 |
| O=Cc1ccc([N+](=O)[O-])cc1 | 4.17 | 3.2 |
| C#CC(C)O (stereo not given) | 3.78 | 2.6 |
| CCCC(C)=O | 1.84 | 1.78 |
| CCCCC(C)=O | 2.37 | 1.66 |
| CCCCCCCCCC(C)=O | 5.05 | 4.54 |
| C=COC(C)=O | 3.57 | 2.14 |
| CCCCCCCCN | 4.4 | 3.35 |
| CN(C)c1ccccn1 | 2.98 | 2.45 |
| c1ccoc1 | 3.05 | 1.35 |

| Structure (SMILES) | 96 h LC50 (-log10 mol/L) (Pimephales promelas) | 48 h IGC50 (-log10 mol/L) (Tetrahymena pyriformis) |
| --- | --- | --- |
| COCCN | 2.16 | 1.21 |
| Brc1nc(Br)c(Br)[nH]1 | 4.7 | 4.43 |
| OCCCCl | 2.07 | 1.6 |
| CCC(C)=O | 1.35 | 1.25 |
| C=CCc1ccccc1O | 3.98 | 3.33 |
| N#CCCl | 4.75 | 3.85 |
| CCOP(=O)(Cc1ccccc1)OCC | 2.83 | 2.57 |
| CCOC(=O)CCCCC(=O)OCC | 4.05 | 2.87 |
| CCCCCCCCC#N | 4.3 | 3.62 |
| O=[N+]([O-])c1ncccc1O | 2.92 | 3.87 |
| CCC(C)N (stereo not given) | 2.42 | 2.33 |
| CC(C)=NO | 2.12 | 1.75 |
| NC(=O)c1ccccc1N | 2.54 | 2.13 |
| CC(C)(O)CCc1ccccc1 | 3.39 | 2.93 |
| CCOC(=O)CC(=O)OCC | 4.02 | 2 |
| NC(=O)c1ccccc1O | 3.13 | 2.76 |
| Cc1ccc(C)o1 | 3.13 | 2.52 |
| CC(C)c1cccc(C(C)C)c1N | 4.1 | 3.76 |
| Oc1cccnc1Br | 2.57 | 3.15 |
| O=c1cc(-c2ccccc2)oc2ccccc12 | 4.8 | 4.41 |
| CCOC(=O)C(Cc1ccccc1)C(=O)OCC | 4.66 | 3.71 |
| O=[N+]([O-])c1cc([N+](=O)[O-])c(Cl)cc1Cl | 6.78 | 5.72 |
